Assays:
[1] = molecular target: T1, M. tuberculosis GyrA^A90V gyrase (Mycobacterium tuberculosis, UniProt P9WG47, A90V); type: biochemical
[2] = molecular target: T1, M. tuberculosis GyrA^A90V gyrase; type: biochemical; remark: listed apart in the source

How did the “single-stranded DNA cleavage enhancement compared to wild-type” value [1] turn out when `CC[C@H](C)n1cc(C)c2c(C(=O)NCc3c(C)cc(C)[nH]c3=O)cc(-c3ccc(N4CCNCC4)nc3)cc21` [GSK126] was run?
Its value is “induced substantially more single-stranded DNA cleavage”.

And the “potency in supercoiling inhibition compared to the wild-type enzyme” value [2]?
Its value is “potency dropped considerably”.
